For this experiment, the target named is T1, hDMT1 (Homo sapiens, UniProt P49281).
T1 sequence (P49281 1-568): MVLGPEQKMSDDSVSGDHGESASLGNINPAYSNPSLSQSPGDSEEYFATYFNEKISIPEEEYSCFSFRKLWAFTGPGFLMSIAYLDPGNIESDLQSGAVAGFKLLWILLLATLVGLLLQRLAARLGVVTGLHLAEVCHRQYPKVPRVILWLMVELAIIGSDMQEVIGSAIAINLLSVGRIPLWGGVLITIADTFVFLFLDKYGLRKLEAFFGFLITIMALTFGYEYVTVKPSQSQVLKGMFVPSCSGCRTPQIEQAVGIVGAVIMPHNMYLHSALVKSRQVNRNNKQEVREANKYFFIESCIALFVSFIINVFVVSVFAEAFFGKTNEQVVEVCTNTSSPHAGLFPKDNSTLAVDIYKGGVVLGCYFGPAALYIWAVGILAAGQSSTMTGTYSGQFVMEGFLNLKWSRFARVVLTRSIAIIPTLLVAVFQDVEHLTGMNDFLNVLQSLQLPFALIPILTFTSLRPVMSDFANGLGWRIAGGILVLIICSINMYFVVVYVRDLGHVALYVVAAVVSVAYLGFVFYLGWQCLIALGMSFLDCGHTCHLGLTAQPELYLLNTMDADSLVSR
As to the kind of experiment: 55Fe2+ uptake in Xenopus laevis oocytes overexpressing hDMT1. In kind it is cell-based. On the set-up: DsRED; expressed in transfected cells; host or cells: HEK293T (ATCC CRL-3216), transient transfection with Lipofectamine 2000. The settings on record: compound 10 μM, 55Fe2+ 20 μM. The protocol: Fig. 3 Characterization of Fe^2+ transport inhibition by 1 and 13 in X. laevis oocytes (collected from frogs under license number BE60/18 conceded by the Veterinärdienst des Kantons BE, Sekretariat Tierversuche). (a) Upper panel: Average ^55Fe^2+-uptake (20 μM) by hDMT1-expressing and non-injected oocytes in the absence and the presence of the indicated compounds (10 μM). Data was normalized to ^55Fe^2+-uptake (pmol min^–1) in the absence of compounds represented as mean ± SD (16–29 oocytes). Lower panel: Net uptake of ^55Fe^2+ (20 μM) by hDMT1 in the absence and the presence of the indicated compounds (10 μM). For each batch of oocytes, uptake values were corrected for unspecific iron uptake in non-injected oocytes. Data were normalized to the mean iron uptake by hDMT1 WT (pmol min^–1) and represented as mean ± SD (14–34 oocytes). (b and c) Electrophysiology. […] For each trace, recorded currents were corrected for the background currents observed without substrate. (b) Representative traces recorded with hDMT1 injected oocytes (upper panel) and non-injected oocytes (lower panel). […] Statistical differences were assessed using T-test or Mann–Whitney U test (Fe^2+-uptake by hDMT1 WT vs. non-injected oocytes or vs. compound); p > 0.05 = ns; p < 0.001 = ***. […]

Molecules are shown by their SMILES.

In the case of `N=C(N)SCc1cccc2c1oc1c(CSC(=N)N)cccc12` [Compound 1, reference compound], the “inhibition of radioactive iron uptake in oocytes” value is given as “totally inhibited”.
For the molecule `Cc1cc(=O)[nH]c(-n2nc3c(c2C)CCCC3)n1` [Compound 13], the inhibition (usually how much of the control response was suppressed) at 10 µM (read-out: inhibition of radioactive iron uptake in oocytes) was determined as 50%.

The values are drawn from article PMC7649969, “Pyrazolyl-pyrimidones inhibit the function of human solute carrier protein SLC11A2 (hDMT1) by metal chelation” (RSC Medicinal Chemistry, 2020).
